Here are results for 63 compounds from patent US12187722B2, “Small molecule inhibitors of TEAD transcription factors” (The General Hospital Corporation, priority 2019, dated 2025).

Values joined by “and” are separate entries in the source; they are usually repeats but may differ in a detail not shown here. Equal entries are not always repeated.

TEAD2, sequence (Q15562 whole entry): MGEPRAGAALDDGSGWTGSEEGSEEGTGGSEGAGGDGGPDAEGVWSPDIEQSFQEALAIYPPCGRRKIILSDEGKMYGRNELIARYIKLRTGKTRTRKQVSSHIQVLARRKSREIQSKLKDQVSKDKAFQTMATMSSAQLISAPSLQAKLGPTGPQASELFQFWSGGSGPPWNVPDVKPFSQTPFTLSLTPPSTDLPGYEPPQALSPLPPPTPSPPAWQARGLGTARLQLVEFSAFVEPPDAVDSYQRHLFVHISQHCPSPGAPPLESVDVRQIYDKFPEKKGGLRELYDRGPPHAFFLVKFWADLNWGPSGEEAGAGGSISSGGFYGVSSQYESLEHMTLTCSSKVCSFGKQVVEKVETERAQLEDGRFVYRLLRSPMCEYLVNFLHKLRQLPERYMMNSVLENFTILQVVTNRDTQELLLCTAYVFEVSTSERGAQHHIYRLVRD

The assay addresses TEAD2 (Homo sapiens (Human), UniProt Q15562). As to the kind of experiment: In vitro palmitoylation (TEAD2 autopalmitoylation, streptavidin blot). In kind it is biochemical. The settings on record: compound at 10 μM; Table 2. The method, boiled down:
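Recombinant GST- or His6-TEAD2 (500 ng) preincubated 15 min with compound, then 30 min with 1 μM alkyne palmitoyl-CoA; click-labelled with biotin-azide (1 h, RT). Streptavidin-HRP blot band intensity quantified after SDS-PAGE; inhibition of autopalmitoylation relative to DMSO control.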
Regarding `O=C(O)c1cncnc1Nc1ccc(Nc2ccc(C34CC5CC(CC(C5)C3)C4)cc2Cl)cc1` [Compound 85], the inhibition at 10 µM is 20%. In the case of `O=C(O)c1nccnc1Nc1ccc(Nc2ccc(C34CC5CC(CC(C5)C3)C4)cc2Cl)cc1` [Compound 86], the inhibition at 10 µM came to 54%. For `CC(C)c1ccccc1-c1ccc(NC(=O)C2CN(CC(=O)O)C2)cc1` [Compound 87], the inhibition at 10 µM came to 4%. As to `O=C(O)C1CCNCC1Nc1ccc(Nc2ccc(C34CC5CC(CC(C5)C3)C4)cc2Cl)cc1` (centres unmarked) [Compound 88], the inhibition at 10 µM was determined as 12%. `O=C(O)c1ccnc(Nc2ccc(Nc3ccc(C45CC6CC(CC(C6)C4)C5)cc3Cl)cc2)c1` [Compound 89]: the inhibition at 10 µM is 90%. Still for that read-out and setting: under `O=C(O)c1cccnc1Nc1ccc(Nc2ccc(C34CC5CC(CC(C5)C3)C4)cc2Cl)nc1` [Compound 91] stands 97%; under `O=C(O)c1cccnc1Nc1ccc(C23CC4CC(CC(C4)C2)C3)cc1Br` [Compound 92], 90%; under `O=C(O)C1CNCC1Nc1ccc(Nc2ccc(C34CC5CC(CC(C5)C3)C4)cc2Cl)cc1` (centres unmarked) [Compound 93], 72%.

In the case of `CC(C)(C)OC(=O)NC(Cc1ccc(Nc2ccc(C34CC5CC(CC(C5)C3)C4)cc2Cl)cc1)C(=O)O` (centres unmarked) [Compound 94], the inhibition at 10 µM stood at 91%. On to `NC(Cc1ccc(Nc2ccc(C34CC5CC(CC(C5)C3)C4)cc2Cl)cc1)C(=O)O` (centres unmarked) [Compound 95], for which the inhibition at 10 µM worked out at 97%. Still for that read-out and setting: under `O=C(O)c1cccnc1Nc1cccc(C23CC4CC(CC(C4)C2)C3)c1` [Compound 96] stands 96%. As for `O=C(O)c1cccc2nc(-c3cccc(C45CC6CC(CC(C6)C4)C5)c3)[nH]c12` [Compound 97], the inhibition at 10 µM worked out at 60%.

`O=C(NC12CC3CC(CC(C3)C1)C2)c1ccc(Nc2ccc(Nc3ccccc3C(=O)O)cc2)cc1` [Compound 98]: the inhibition at 10 µM worked out at 89%. Consider `CN(c1ccc(Nc2ccc(C34CC5CC(CC(C5)C3)C4)cc2)cc1)c1ccccc1C(=O)O` [Compound 99], for which the inhibition at 10 µM worked out at 85%. Consider `O=C(O)Cn1ncc2cc(Nc3ccc(C45CC6CC(CC(C6)C4)C5)cc3Cl)ccc21` [Compound 101], for which the inhibition at 10 µM was 62%. On to `CC1(C)OC(C(=O)O)C(C(=O)Nc2ccc(Nc3ccc(C45CC6CC(CC(C6)C4)C5)cc3Cl)cc2)O1` (centres unmarked) [Compound 102], for which the inhibition at 10 µM turned out to be 77%. For `O=C(O)C1CCCN1Cc1ccc(Nc2ccc(C34CC5CC(CC(C5)C3)C4)cc2Cl)cc1` (centres unmarked) [Compound 103], the inhibition at 10 µM is 53%. As to `O=C(O)c1cccnc1Nc1ccc(Nc2cccc(C34CC5CC(CC(C5)C3)C4)c2)cc1` [Compound 104], the inhibition at 10 µM turned out to be 80%. With `Clc1cc(C23CC4CC(CC(C4)C2)C3)ccc1Nc1ccc(Cn2ccnc2)cc1` [Compound 105], the inhibition at 10 µM came out at 96%. For the compound `O=C(O)c1cccnc1N1CCN(Cc2ccc(C34CC5CC(CC(C5)C3)C4)cc2Cl)CC1` [Compound 106], the inhibition at 10 µM turned out to be 0%.

With `O=C(O)c1cccnc1CN1CCN(Cc2ccc(C34CC5CC(CC(C5)C3)C4)cc2Cl)CC1` [Compound 107], the inhibition at 10 µM was determined as 14%. As to `O=C(O)Cn1cnc2cc(Nc3ccc(C45CC6CC(CC(C6)C4)C5)cc3Cl)ccc21` [Compound 108], the inhibition at 10 µM stood at 86%. `O=C(O)Cn1cc2cc(Nc3ccc(C45CC6CC(CC(C6)C4)C5)cc3Cl)ccc2n1` [Compound 110]: the inhibition at 10 µM worked out at 85%.

For the compound `O=C(O)c1cccnc1Nc1cccc(Nc2cccc(C34CC5CC(CC(C5)C3)C4)c2)c1` [Compound 111], the inhibition at 10 µM was found to be 80%. Turning to `CC(C)c1ccccc1Cc1cccc(Nc2ncccc2C(=O)O)c1` [Compound 113], the inhibition at 10 µM was determined as 100%. Regarding `O=C(O)c1cccnc1Nc1cccc(Nc2ccc(C34CC5CC(CC(C5)C3)C4)cc2Cl)c1` [Compound 114], the inhibition at 10 µM turned out to be 98%. `O=C(O)c1cncc(Nc2ccc(Nc3ccc(C45CC6CC(CC(C6)C4)C5)cc3Cl)cc2)n1` [Compound 115]: the inhibition at 10 µM was determined as 67%. On to `O=C(O)c1cncc(Nc2ccc(Nc3ccc(C45CC6CC(CC(C6)C4)C5)cc3Cl)cc2)c1` [Compound 116], for which the inhibition at 10 µM was 91%. As for `O=C(O)c1cc(Nc2ccc(Nc3ccc(C45CC6CC(CC(C6)C4)C5)cc3Cl)cc2)ccn1` [Compound 117], the inhibition at 10 µM stood at 9%. Consider `O=C(O)Cn1ncc2ccc(Nc3ccc(C45CC6CC(CC(C6)C4)C5)cc3Cl)cc21` [Compound 118], for which the inhibition at 10 µM came out at 78%. Take `CC1(C)OC(C(=O)O)C(C(=O)Nc2cc(Nc3ccc(C45CC6CC(CC(C6)C4)C5)cc3Cl)cc(C(F)(F)F)c2)O1` (centres unmarked) [Compound 120]: the inhibition at 10 µM was 79%. On the same count and under the same terms, under `O=C(O)c1cnn(Cc2ccc(Nc3ccc(C45CC6CC(CC(C6)C4)C5)cc3Cl)cc2)c1` [Compound 121] stands 80%; under `O=C(O)c1cccnc1Cc1ccc(Nc2ccc(C34CC5CC(CC(C5)C3)C4)cc2Cl)cc1` [Compound 122], 95%; under `O=C(O)C1CCCN(C(=O)c2ccc(Nc3ccc(C45CC6CC(CC(C6)C4)C5)cc3Cl)cc2)C1` (centres unmarked) [Compound 123], 88%. Same read-out and setting: the same measure for `O=C(O)c1cccn1Cc1ccc(Nc2ccc(C34CC5CC(CC(C5)C3)C4)cc2Cl)cc1` [Compound 124]: 86%.

For the compound `O=C(O)Cn1ccc2ccc(Nc3ccc(C45CC6CC(CC(C6)C4)C5)cc3Cl)cc21` [Compound 126], the inhibition at 10 µM is 86%. `O=C(O)c1cn(Cc2cccc(Nc3ccc(C45CC6CC(CC(C6)C4)C5)cc3Cl)c2)cn1` [Compound 127]: the inhibition at 10 µM worked out at 27%.

Turning to `O=C(O)c1cncn1Cc1cccc(Nc2ccc(C34CC5CC(CC(C5)C3)C4)cc2Cl)c1` [Compound 128], the inhibition at 10 µM is 92%.

Take `O=C(O)c1cccnc1Nc1ncn(Cc2ccc(C34CC5CC(CC(C5)C3)C4)cc2Cl)n1` [Compound 129]: the inhibition at 10 µM came out at 41%.

For `O=C(O)Cn1ccc2cc(Nc3ccc(C45CC6CC(CC(C6)C4)C5)cc3Cl)ccc21` [Compound 130], the inhibition at 10 µM was determined as 100%.

Regarding `O=C(O)c1cccnc1Nc1ccc2c(c1)N(Cc1ccc(C34CC5CC(CC(C5)C3)C4)cc1Cl)CC2` [Compound 131], the inhibition at 10 µM was 37%. On the same count and under the same terms, the same measure for `CN(c1cccc(N(C)c2ncccc2C(=O)O)c1)c1ccc(C23CC4CC(CC(C4)C2)C3)cc1Cl` [Compound 132]: 100%; for `CN(c1cnn(Cc2ccc(C34CC5CC(CC(C5)C3)C4)cc2Cl)c1)c1ncccc1C(=O)O` [Compound 133]: 93%; for `O=C(O)c1cccnc1Nc1cn(Cc2ccc(C34CC5CC(CC(C5)C3)C4)cc2Cl)cn1` [Compound 134]: 0%. For the compound `CN(c1cccc(Nc2ccc(C34CC5CC(CC(C5)C3)C4)cc2Cl)c1)c1ncccc1C(=O)O` [Compound 135], the inhibition at 10 µM is 100%. `O=C(O)c1cccnc1Oc1ccc(Nc2ccc(C34CC5CC(CC(C5)C3)C4)cc2Cl)cc1` [Compound 136]: the inhibition at 10 µM was found to be 99%. Consider `O=C(O)c1cccnc1CN1CCC(Nc2ccc(C34CC5CC(CC(C5)C3)C4)cc2Cl)C1` (centres unmarked) [Compound 137], for which the inhibition at 10 µM was found to be 99%. In the case of `CN(c1ccc(Nc2ccc(C34CC5CC(CC(C5)C3)C4)cc2)cc1)c1ncccc1C(=O)O` [Compound 138], the inhibition at 10 µM is 24%.

On to `CN(c1ccc(C23CC4CC(CC(C4)C2)C3)cc1)c1cccc(N(C)c2ncccc2C(=O)O)c1` [Compound 140], for which the inhibition at 10 µM turned out to be 99%.

In the case of `O=C(O)c1cccnc1CN1CCCC(Nc2ccc(C34CC5CC(CC(C5)C3)C4)cc2Cl)C1` (centres unmarked) [Compound 141], the inhibition at 10 µM came out at 95%.

With `CN(c1ccc(Nc2ncccc2C(=O)O)cc1)c1ccc(C23CC4CC(CC(C4)C2)C3)cc1Cl` [Compound 142], the inhibition at 10 µM is 65%. Still for that read-out and setting: the same measure for `O=C(O)C1CCCN(Cc2ccc(Nc3ccc(C45CC6CC(CC(C6)C4)C5)cc3Cl)cc2)C1` (centres unmarked) [Compound 143]: 22%; for `CN(c1cnc(Nc2ccc(C34CC5CC(CC(C5)C3)C4)cc2Cl)cn1)c1ccccc1C(=O)O` [Compound 144]: 100%. On to `O=C(Nc1ccc(C23CC4CC(CC(C4)C2)C3)cc1)c1ccc(Nc2ncccc2C(=O)O)cc1` [Compound 145], for which the “% of inhibition of TEAD2 palmitoylation at 10 μM” value (shortened to “% of inhibition … at 10 μM”) is 61% and 84%. On to `CN(c1ccc(C(=O)Nc2ccc(C34CC5CC(CC(C5)C3)C4)cc2)cc1)c1ncccc1C(=O)O` [Compound 147], for which the inhibition at 10 µM was determined as 70%. For `O=C(Nc1ccc(C23CC4CC(CC(C4)C2)C3)cc1)c1ccc(Nc2cccc(C(=O)O)n2)cc1` [Compound 148], the “% of inhibition … at 10 μM” value was 69% and the inhibition at 10 µM is 56%. As to `CN(C(=O)c1ccc(N(C)c2ccccc2C(=O)O)cc1)c1ccc(C23CC4CC(CC(C4)C2)C3)cc1` [Compound 149], the inhibition at 10 µM was 40%. Still for that read-out and setting: under `O=C(O)c1cccc(Nc2cccc(Nc3ccc(C45CC6CC(CC(C6)C4)C5)cc3Cl)c2)n1` [Compound 150] stands 100%; under `O=C(O)c1cncc(Nc2cc(C(F)(F)F)cc3[nH]c4ccc(C56CC7CC(CC(C7)C5)C6)cc4c23)c1` [Compound 151], 101%; under `CN(c1ccc(C23CC4CC(CC(C4)C2)C3)cc1)c1cc(N(C)c2ncccc2C(=O)O)cc(C(F)(F)F)c1` [Compound 152], 102%. As for `O=C(O)c1cncc(Nc2cc(Nc3ccc(C45CC6CC(CC(C6)C4)C5)cc3Cl)cc(C(F)(F)F)c2)c1` [Compound 153], the inhibition at 10 µM was found to be 100%.

Regarding `O=C(O)c1cccc(Nc2cc(C(F)(F)F)cc3[nH]c4ccc(C56CC7CC(CC(C7)C5)C6)cc4c23)n1` [Compound 154], the “% of inhibition … at 10 μM” value is reported as 43% and the inhibition at 10 µM is 58%.

For the compound `CN(c1ccc(Oc2ccc(C34CC5CC(CC(C5)C3)C4)cc2)cc1)c1ccccc1C(=O)O` [Compound 155], the inhibition at 10 µM came to 99%.

By inhibition is commonly meant the change of the read-out against control, counted positive when it falls.
